According to PubChem BioAssay (NCI):
“And” between values parts separate entries of the source, which are not always exact repeats. Equal values may be shown once.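 These data come from cells grown in 96-well plates and exposed to compound for 48 hours at five concentrations. The concentration for 50% growth inhibition is given as GI50. TGI: concentration producing complete growth inhibition.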

Columns and labels:
Experiment in all cases: DTP human tumour cell line panel, 48 h
CAKI-1 renal = system: CAKI-1 renal
COLO 205 colon = system: COLO 205 colon
HCT-116 colon = system: HCT-116 colon
HCT-15 colon = system: HCT-15 colon
IGROV1 ovarian = system: IGROV1 ovarian
NCI-H460 lung = system: NCI-H460 lung
RPMI-8226 leukemia = system: RPMI-8226 leukemia
SF-295 CNS = system: SF-295 CNS
SK-MEL-5 melanoma = system: SK-MEL-5 melanoma
TK-10 renal = system: TK-10 renal

| SMILES | TGI (CAKI-1 renal) | TGI (COLO 205 colon) | TGI (HCT-116 colon) | TGI (HCT-15 colon) | TGI (IGROV1 ovarian) | TGI (NCI-H460 lung) | TGI (RPMI-8226 leukemia) | TGI (SF-295 CNS) | TGI (SK-MEL-5 melanoma) | TGI (TK-10 renal) | GI50 (CAKI-1 renal) | GI50 (COLO 205 colon) | GI50 (HCT-116 colon) | GI50 (HCT-15 colon) | GI50 (IGROV1 ovarian) | GI50 (NCI-H460 lung) | GI50 (RPMI-8226 leukemia) | GI50 (SF-295 CNS) | GI50 (SK-MEL-5 melanoma) | GI50 (TK-10 renal) |
| --- | --- | --- | --- | --- | --- | --- | --- | --- | --- | --- | --- | --- | --- | --- | --- | --- | --- | --- | --- | --- |
| COC(=O)C1C(=O)N(CCc2c[nH]c3ccccc23)C[C@@H]2CCC(=O)C[C@H]12 (stereo not given in full) | > 100 µM | > 100 µM | > 100 µM | > 100 µM | > 100 µM | > 100 µM | > 100 µM | > 100 µM | > 100 µM | > 100 µM | – | – | – | – | – | – | – | – | – | – |
| CCOc1ccc(Nc2c3ccccc3nc3ccccc23)cc1 | 3.32 µM and 1.75 µM | 1.39 µM and 1.33 µM | 1.32 µM and 2.81 µM | 3.18 µM | 14.9 µM and 13.4 µM | 3.03 µM and 1.82 µM | 4.58 µM and 4.03 µM | 1.11 µM and 0.956 µM | 1.33 µM and 1.45 µM | 4.27 µM and 12.3 µM | 0.359 µM and 0.376 µM | 0.313 µM and 0.307 µM | 0.335 µM and 0.318 µM | 0.592 µM and 0.552 µM | 0.758 µM and 0.32 µM | 0.407 µM and 0.347 µM | 1.07 µM and 0.364 µM | 0.228 µM and 0.219 µM | 0.343 µM and 0.371 µM | 0.797 µM and 0.654 µM |
| COc1ccc(-c2c(C3=NCCCN3)nnn2-c2ccc([N+](=O)[O-])cc2)cc1 | > 100 µM | > 100 µM | > 100 µM | > 100 µM | > 100 µM | > 100 µM | > 100 µM | > 100 µM | > 100 µM | > 100 µM | – | – | – | – | – | – | – | – | – | – |
| O=C(Cl)C1=C(c2ccccc2)C1c1ccccc1 (stereo not given) | > 100 µM | > 100 µM | > 100 µM | > 100 µM | > 100 µM | > 100 µM | > 100 µM | > 100 µM | > 100 µM | > 100 µM | – | – | – | – | – | – | – | – | – | – |
| Fc1ccc2nc(-c3cc(-c4ccc5c(c4)OCO5)n[nH]3)[nH]c2c1 | > 55.7 µM | > 66.1 µM | > 32.5 µM | > 42.4 µM | > 100 µM | > 40.2 µM | 8.26 µM | > 81.3 µM | 3.14 µM | > 45.1 µM | 2.44 µM | 9.22 µM | 3.51 µM | 3.27 µM | 3.79 µM | 4.22 µM | 1.17 µM | 4.99 µM | 1.56 µM | 7.3 µM |
| COc1cccc(COc2cc(-n3cnc4ccccc43)sc2C(N)=O)c1 | > 25 µM | > 25 µM | > 25 µM | > 25 µM | > 25 µM | > 25 µM | > 25 µM | > 25 µM | > 25 µM | > 25 µM | > 25 µM | 4.75 µM | 12.8 µM | > 25 µM | > 23.8 µM | 9.23 µM | > 25 µM | > 15.6 µM | > 19.4 µM | > 25 µM |
| COc1cc(C2c3cc4c(cc3[C@@H](Nc3ccc5c(c3)OCCO5)C3COC(=O)[C@H]23)OCO4)cc(OC)c1O (stereo not given in full) | 2.42 µM | 4.43 µM | 8 µM | 7.23 µM | 16.6 µM | 2.23 µM | 8.42 µM | 4.25 µM | 1.75 µM | 11.6 µM | – | – | – | – | – | – | – | – | – | – |
| COc1ccc(-c2cnoc2-c2cc(OC)c3c(c2)OCCO3)cc1 | > 100 µM | 0.0806 µM | > 37 µM | 28.1 µM | > 100 µM | 12.8 µM | 33 µM | 22.3 µM | 0.592 µM | > 100 µM | 0.0409 µM | 0.0231 µM | 0.0396 µM | 0.0258 µM | 0.0924 µM | 0.0327 µM | 0.0477 µM | < 0.0108 µM | 0.0222 µM | 16.7 µM |
